Assay [1] deals with T1, Cannabinoid receptor 1 (Homo sapiens, UniProt P21554). In kind it is functional, cell-based.
In assay [2] the target is T2, Amine oxidase [flavin-containing] A (Homo sapiens, UniProt P21397).
T2 sequence (P21397 whole entry): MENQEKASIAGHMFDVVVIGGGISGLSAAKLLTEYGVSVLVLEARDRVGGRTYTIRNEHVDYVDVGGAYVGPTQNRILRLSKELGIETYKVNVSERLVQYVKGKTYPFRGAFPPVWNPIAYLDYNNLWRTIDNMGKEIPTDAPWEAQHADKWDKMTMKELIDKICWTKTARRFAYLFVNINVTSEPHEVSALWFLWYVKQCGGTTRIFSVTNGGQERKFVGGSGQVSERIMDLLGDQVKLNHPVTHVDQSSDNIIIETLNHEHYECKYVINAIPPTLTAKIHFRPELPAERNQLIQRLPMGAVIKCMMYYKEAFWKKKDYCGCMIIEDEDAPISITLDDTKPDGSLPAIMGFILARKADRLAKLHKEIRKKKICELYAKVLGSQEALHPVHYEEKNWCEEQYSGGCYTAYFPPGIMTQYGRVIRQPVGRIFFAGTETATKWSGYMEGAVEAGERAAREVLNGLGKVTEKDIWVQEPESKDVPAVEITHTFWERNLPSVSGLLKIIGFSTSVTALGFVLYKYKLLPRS
It is filed as functional.

For assay [3], the target named is T3, Beta-2 adrenergic receptor (Homo sapiens, UniProt P07550). In kind it is functional, cell-based.
T3 sequence (P07550 whole entry): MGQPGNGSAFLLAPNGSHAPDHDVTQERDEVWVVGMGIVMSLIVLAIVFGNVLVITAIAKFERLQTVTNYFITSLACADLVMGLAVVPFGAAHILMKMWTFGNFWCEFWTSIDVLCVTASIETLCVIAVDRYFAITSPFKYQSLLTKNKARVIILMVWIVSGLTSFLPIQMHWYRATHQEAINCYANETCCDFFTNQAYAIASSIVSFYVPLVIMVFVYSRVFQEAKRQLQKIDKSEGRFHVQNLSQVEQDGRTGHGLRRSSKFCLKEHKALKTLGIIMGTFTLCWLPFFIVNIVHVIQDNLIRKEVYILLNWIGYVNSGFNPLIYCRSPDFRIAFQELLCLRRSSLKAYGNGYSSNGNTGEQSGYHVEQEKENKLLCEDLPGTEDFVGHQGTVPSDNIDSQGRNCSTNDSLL
In assay [4] the target is T4, Gastrin/cholecystokinin type B receptor (Homo sapiens, UniProt P32239).
T4 sequence (P32239 whole entry): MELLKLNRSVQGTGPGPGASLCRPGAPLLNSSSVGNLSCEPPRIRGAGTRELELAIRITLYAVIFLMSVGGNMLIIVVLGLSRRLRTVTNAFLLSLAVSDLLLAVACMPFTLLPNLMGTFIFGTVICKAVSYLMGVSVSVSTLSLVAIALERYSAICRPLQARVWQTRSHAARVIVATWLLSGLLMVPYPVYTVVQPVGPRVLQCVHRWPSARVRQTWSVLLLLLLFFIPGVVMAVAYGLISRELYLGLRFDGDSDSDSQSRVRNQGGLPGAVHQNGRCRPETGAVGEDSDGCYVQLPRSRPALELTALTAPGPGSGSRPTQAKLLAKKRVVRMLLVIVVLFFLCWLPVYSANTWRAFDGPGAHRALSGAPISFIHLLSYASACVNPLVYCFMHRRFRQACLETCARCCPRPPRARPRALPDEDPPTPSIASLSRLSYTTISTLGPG

For assay [5], the target named is T5, 5-hydroxytryptamine receptor 1A (Homo sapiens, UniProt P08908).
T5 sequence (P08908 whole entry): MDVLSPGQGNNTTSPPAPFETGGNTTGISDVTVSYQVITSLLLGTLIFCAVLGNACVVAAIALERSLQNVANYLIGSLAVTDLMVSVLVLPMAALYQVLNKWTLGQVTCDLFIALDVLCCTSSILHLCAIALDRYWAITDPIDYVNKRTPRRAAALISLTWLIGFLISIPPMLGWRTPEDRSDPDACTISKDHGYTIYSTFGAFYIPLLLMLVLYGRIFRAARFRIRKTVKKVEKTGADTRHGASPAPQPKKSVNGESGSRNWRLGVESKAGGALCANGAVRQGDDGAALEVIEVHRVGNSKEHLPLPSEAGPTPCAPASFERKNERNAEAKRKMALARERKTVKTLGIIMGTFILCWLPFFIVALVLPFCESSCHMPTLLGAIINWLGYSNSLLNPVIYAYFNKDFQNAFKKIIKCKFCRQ
It is filed as functional, cell-based.

Assay [6] concerns the target T6, 5-hydroxytryptamine receptor 2A (Homo sapiens, UniProt P28223). It is filed as functional, cell-based.
Assay [7] has as its target Beta-1 adrenergic receptor (Homo sapiens, UniProt P08588). In kind it is functional, cell-based.
Assay [8] addresses T1, Cannabinoid receptor 1. In kind it is functional, cell-based. The source holds these as a separate data set.
The target in assay [9] is T3, Beta-2 adrenergic receptor.
For assay [10], the target named is T6, 5-hydroxytryptamine receptor 2A. It is filed as functional, cell-based. This is another data set of the same source.
A further assay concerns the target T7, Endothelin-1 receptor (Homo sapiens, UniProt P25101).
T7 sequence (P25101 whole entry): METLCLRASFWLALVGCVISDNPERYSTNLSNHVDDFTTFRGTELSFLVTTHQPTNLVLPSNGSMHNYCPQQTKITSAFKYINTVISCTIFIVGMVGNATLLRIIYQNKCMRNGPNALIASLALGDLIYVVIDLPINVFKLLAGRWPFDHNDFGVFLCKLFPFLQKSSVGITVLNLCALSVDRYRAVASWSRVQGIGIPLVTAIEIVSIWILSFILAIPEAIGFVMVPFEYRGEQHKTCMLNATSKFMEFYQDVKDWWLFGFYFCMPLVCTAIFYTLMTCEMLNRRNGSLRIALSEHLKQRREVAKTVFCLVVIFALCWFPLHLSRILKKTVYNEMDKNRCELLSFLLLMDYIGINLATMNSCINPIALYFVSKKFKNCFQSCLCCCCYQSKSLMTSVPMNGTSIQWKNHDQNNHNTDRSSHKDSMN

Data on two compounds can be found in ChEMBL document CHEMBL5291721, “A preclinical secondary pharmacology resource illuminates target-adverse drug reaction associations of marketed drugs” (Nat Commun, 2023).

The AC50 is the concentration at which the activity in the assay is half-maximal. Low readings indicate activity at low concentration, high ones activity only at high concentration.

Where only a bound is given, the exact number is not on record here.
Also: assay procedure not described here.

T6 sequence (P28223 whole entry): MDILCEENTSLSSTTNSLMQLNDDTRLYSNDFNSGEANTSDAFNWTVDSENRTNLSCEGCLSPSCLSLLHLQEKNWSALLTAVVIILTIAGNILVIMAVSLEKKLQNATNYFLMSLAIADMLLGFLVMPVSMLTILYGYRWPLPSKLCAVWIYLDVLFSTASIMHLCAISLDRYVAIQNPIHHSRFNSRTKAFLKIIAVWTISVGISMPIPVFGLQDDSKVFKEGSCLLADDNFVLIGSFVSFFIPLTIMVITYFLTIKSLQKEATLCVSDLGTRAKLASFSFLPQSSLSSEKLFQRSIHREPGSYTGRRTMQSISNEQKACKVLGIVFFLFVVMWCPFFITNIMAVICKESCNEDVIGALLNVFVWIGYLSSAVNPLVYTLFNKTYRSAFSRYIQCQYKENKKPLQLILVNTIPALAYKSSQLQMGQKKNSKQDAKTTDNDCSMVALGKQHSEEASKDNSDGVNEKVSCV
T1 sequence (P21554 whole entry): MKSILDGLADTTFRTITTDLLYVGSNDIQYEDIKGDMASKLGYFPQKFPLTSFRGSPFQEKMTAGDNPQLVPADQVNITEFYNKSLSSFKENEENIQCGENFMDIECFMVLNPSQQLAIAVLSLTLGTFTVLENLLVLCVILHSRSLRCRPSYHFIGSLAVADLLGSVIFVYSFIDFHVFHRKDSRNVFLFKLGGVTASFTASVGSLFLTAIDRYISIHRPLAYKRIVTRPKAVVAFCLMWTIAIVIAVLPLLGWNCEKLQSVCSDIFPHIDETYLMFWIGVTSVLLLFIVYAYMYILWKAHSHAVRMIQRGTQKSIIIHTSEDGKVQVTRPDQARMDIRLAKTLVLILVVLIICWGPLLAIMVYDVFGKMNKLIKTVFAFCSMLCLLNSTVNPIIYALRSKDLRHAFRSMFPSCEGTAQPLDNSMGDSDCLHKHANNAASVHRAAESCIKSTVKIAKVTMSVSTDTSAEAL
Beta-1 adrenergic receptor, sequence (P08588 whole entry): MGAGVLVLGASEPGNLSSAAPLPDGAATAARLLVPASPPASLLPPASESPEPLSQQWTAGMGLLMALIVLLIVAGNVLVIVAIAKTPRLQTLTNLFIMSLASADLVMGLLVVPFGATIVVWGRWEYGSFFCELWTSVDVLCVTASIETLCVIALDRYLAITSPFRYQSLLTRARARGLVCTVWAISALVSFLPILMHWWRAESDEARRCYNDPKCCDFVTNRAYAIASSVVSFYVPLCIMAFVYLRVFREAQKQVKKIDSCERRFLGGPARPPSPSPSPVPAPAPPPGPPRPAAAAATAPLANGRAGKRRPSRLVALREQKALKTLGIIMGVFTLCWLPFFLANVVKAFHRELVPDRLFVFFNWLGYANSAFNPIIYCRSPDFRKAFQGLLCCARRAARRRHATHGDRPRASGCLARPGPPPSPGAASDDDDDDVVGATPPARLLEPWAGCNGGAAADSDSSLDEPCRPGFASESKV

For `CCN(CC)C(=O)Nc1ccc(OCC(O)CNC(C)(C)C)c(C(C)=O)c1` (configuration not stated) [CELIPROLOL], the half-maximal activity concentration (AC50) (at Cannabinoid receptor 1 [1]; in assay [2]; in assay [3]; in [4]; in assay [5]; in assay [6]) was > 30 µM in each case. The concentration at half-maximal activity (AC50) is > 30 µM in [7]; > 30 µM on Cannabinoid receptor 1 [8]; 4.6 µM in [9]; > 30 µM in [10]; > 30 µM at Endothelin-1 receptor.
For the compound `CCC(COC(=O)c1cc(OC)c(OC)c(OC)c1)(c1ccccc1)N(C)C` (configuration not stated) [TRIMEBUTINE], the AC50 (at Cannabinoid receptor 1 [1]; in assay [2]; in assay [3]; in [4]; in assay [5]; in assay [6]) was > 30 µM each time. In addition, the concentration at half-maximal activity (AC50) (in assay [7]; at Cannabinoid receptor 1 [8]; in assay [9]; in assay [10]; on Endothelin-1 receptor) was > 30 µM each time.
